Legend:
Format in all cases: in vivo
[1] = tested on: adult brown dog ticks (Rhipicephalus sanguineus); test: Rhipicephalus sanguineus in-vitro contact test, adult brown dog ticks; settings: after 48 hours, read-out: activity (efficacy: ticks dead or moribund); for pest or weed control at 100 g/ha: application rate 1 pg/cm^2 (=100 g/ha); for pest or weed control at 5 µg/cm2, 500 g/ha: application rate 5 μg/cm^2 (=500 g/ha)
Outline: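 Acetone solution (900 ppm giving 5 μg/cm²) coated on inner walls of glass tubes; after drying, 5-10 adult ticks added and held at room temperature 48 h. Ticks then placed on 45-50 °C plate ≤5 min; those unable to climb away scored dead/moribund, efficacy as % affected.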

[2] = tested on: Rhipicephalus microplus larvae (strain Parkhurst, resistant against synthetic pyrethroids); test: Rhipicephalus (Boophilus) microplus in-vitro contact test, larval cattle tick; settings: after 48 hours, read-out: activity (efficacy: larvae dead or moribund); for pest or weed control at 100 g/ha: application rate 1 pg/cm^2 (=100 g/ha); for pest or weed control at 500 g/ha: application rate 5 pg/cm^2 (=500 g/ha)
Outline: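 Acetone solutions coated onto inner walls of glass tubes by rotation (900 ppm giving 5 μg/cm^2); after evaporation, 20-50 larvae added per tube and held at 27° C., 85% relative humidity. Efficacy read after 48 h from negative geotactic behaviour; 100% = all larvae dead or moribund.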

[3] = tested on: adult unfed cat fleas (Ctenocephalides felis); test: Ctenocephalides felis oral test; settings: 48 h, read-out: activity (mortality)
Outline: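 About 20 adult unfed fleas fed through parafilm on cattle blood containing compound (DMSO stock diluted in blood), blood held at 37 °C and fleas at room temperature. Mortality (%) scored after 2 days.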

[4] = tested on: green peach aphid (Myzus persicae); test: Myzus persicae oral test; settings: 120 h, application rate 4 ppm, after 5 days
Outline: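 Oral uptake format: water-diluted acetone concentrate of compound is blended into IPL41 medium carrying 33%+15% sugar and offered under a parafilm membrane. Percentage of dead insects is recorded after 5 days.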

[5] = tested on: Musca domestica strain WHO-N; test: Musca domestica test (MUSCDO surface treatment & contact assay); settings: 24 hours after contact, read-out: efficacy (mortality); for mortality at 4 mg/m2: surface concentration 4 mg/m^2, exposure 30 minutes; for mortality at 20 mg/m2: surface concentration 20 mg/m^2, exposure 30 minutes
Description: Musca domestica Test (MUSCDO Surface Treatment & Contact Assay)
Solvent: Aceton+2000 ppm rapeseed oil methyl ester (RME)
In order to produce a sufficient, active ingredient containing solution it is necessary to solve the test compound in the solvent-mix (acetone at 2 mg/ml/RME 2000 ppm). This solution is pipetted onto a glazed tile and after evaporation of the acetone, adult flies of the species Musca domestica strain WHO—N are placed onto the dried surface. The exposure time is 30 minutes. Mortality in percent (%) is determined 24 hours after contact of the insects to the treated surface. 100% mortality means that all tested insects are dead, whereas 0% means that no insect died.

[6] = tested on: larvae of the banded cucumber beetle (Diabrotica balteata); test: Diabrotica balteata spray test; settings: 168 h, after 7 days, read-out: activity (efficacy: seedlings grown); for pest or weed control at 100 g/ha: application rate 100 g/ha (=32 pg/well); for pest or weed control at 500 g/ha: application rate 500 g/ha (=160 pg/well)
Outline: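 Wheat seedlings, germinated 1 day on agar (5 seeds/well), sprayed with active compound in acetone/DMF diluted in water containing 1000 ppm emulsifier, then infested with 10-20 D. balteata larvae. Efficacy (%) scored after 7 days: 100% = seedlings grown as untreated uninfested control, 0% = no seedlings grown.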

[7] = tested on: Aedes aegypti strain MONHEIM; test: Aedes aegypti test (AEDSAE surface treatment & contact assay); settings: 24 hours after contact, read-out: efficacy (mortality); for mortality at 4 mg/m2: surface concentration 4 mg/m^2, exposure 30 minutes
Outline: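 Compound in acetone (2 mg/ml) with 2000 ppm RME pipetted onto glazed tile and dried; adult Aedes aegypti MONHEIM exposed 30 min. Percent mortality scored 24 h after contact.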

[8] = tested on: fall armyworm larvae (Spodoptera frugiperda); test: Spodoptera frugiperda spray test; settings: 168 h, read-out: activity (mortality)
Outline: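 Compound in acetone/DMF, diluted in water with 1000 ppm alkylarylpolyglycol ether emulsifier, sprayed on maize leaf sections. Dried leaves infested with fall armyworm larvae; % mortality after 7 days (100% = all killed, 0% = none).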

[9] = tested on: adult engorged female ticks (Rhipicephalus microplus); test: Rhipicephalus (Boophilus) microplus injection test; settings: 168 h, egg deposition after 7 days, read-out: activity (efficacy: infertile eggs); for pest or weed control at 4 pg: application rate 4 pg/animal; for pest or weed control at 0.02 mg: application rate 20 μg/animal
Outline: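 Five adult engorged female ticks injected into the abdomen with 1 μL compound solution in DMSO, then held in a climate chamber. Fertile egg deposition assessed after 7 days, unclear eggs kept until hatching (about 42 days); efficacy 100% = all eggs infertile, 0% = all fertile.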

[10] = tested on: adult cat fleas (Ctenocephalides felis); test: Ctenocephalides felis in-vitro contact test, adult cat flea; settings: application rate 5 μg/cm^2 (=500 g/ha), after 48 hours, read-out: activity (efficacy: fleas dead or moribund)
Description: Ctenocephalides felis—In-Vitro Contact Tests Adult Cat Flea
9 mg compound is solved in 1 mL acetone and diluted with acetone to the desired concentration. 250 μL of the test solution is filled in 25 mL glass test tubes and homogeneously distributed on the inner walls by rotation and tilting on a shaking device (2 h at 30 rpm). With a compound concentration of 900 ppm, an inner surface of 44.7 cm^2 and a homogeneous distribution, a dose of […] is achieved.
After the solvent has evaporated, each test tube is filled with 5-10 adult cat fleas (Ctenocephalides felis), closed with a perforated lid and incubated in a lying position at room temperature and relative humidity. After 48 hours efficacy is determined. The fleas are patted on the ground of the tubes and are incubated on a heating plate at 45-50° C. for at most 5 minutes. Immotile or uncoordinated moving fleas, which are not able to escape the heat by climbing upwards, are marked as dead or moribund.
An efficacy of 100% means all fleas are dead or moribund; 0% means no fleas are dead or moribund.

[11] = tested on: larvae of the southern green stink bug (Nezara viridula); test: Nezara viridula spray test; settings: 96 h, after 4 days; for mortality at 100 g/ha: application rate 100 g/ha; for mortality at 500 g/ha: application rate 500 g/ha
Outline: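 Compound in acetone/dimethylformamide, diluted in water with 1000 ppm alkylarylpolyglycol ether emulsifier, sprayed onto barley plants carrying stink bug larvae. Mortality (%) scored after 4 days, 100% meaning all insects killed.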

[12] = tested on: green peach aphid (Myzus persicae); test: Myzus persicae spray test; settings: 120 h, after 5 days; for mortality at 100 g/ha: application rate 100 g/ha
Description: Myzus persicae—Spray Test
Solvent: 78.0 parts by weight acetone • 1.5 parts by weight dimethylformamide
Emulsifier: alkylarylpolyglycol ether
To produce a suitable preparation of active compound, 1 part by weight of active compound is mixed with the stated amount of solvents and is diluted with water, containing an emulsifier concentration of 1000 ppm, to the desired concentration. Further test concentrations are prepared by dilution with emulsifier containing water.
Chinese cabbage (Brassica pekinensis) leaf disks infected with all instars of the green peach aphid (Myzus persicae), are sprayed with a preparation of the active ingredient of the desired concentration.
After 5 days mortality in % is determined. 100% means all aphids have been killed and 0% means none of the aphids have been killed.

Row | SMILES | pest or weed control at 100 g/ha [1] [%] | pest or weed control at 5 µg/cm2, 500 g/ha [1] [%] | pest or weed control at 100 g/ha [2] [%] | pest or weed control at 500 g/ha [2] [%] | mortality at 100 ppm [3] [%] | mortality at 4 ppm [4] [%] | mortality at 4 mg/m2 [5] [%] | pest or weed control at 100 g/ha [6] [%] | mortality at 4 mg/m2 [7] [%] | mortality at 100 g/ha [8] [%] | pest or weed control at 4 pg [9] [%] | pest or weed control at 5 µg/cm2 [10] [%] | mortality at 100 g/ha [11] [%] | mortality at 500 g/ha [11] [%] | pest or weed control at 500 g/ha [6] [%] | mortality at 100 g/ha [12] [%] | mortality at 500 g/ha [8] [%] | pest or weed control at 0.02 mg [9] [%] | mortality at 20 mg/m2 [5] [%] | also measured
1 | C[C@H](NC(=O)c1cc(C2CC2)cc(C2CC2)c1)c1ncnn1-c1ccc(C#N)cn1 [II-57] | 80 | 100 | 100 | 100 | 100 | 100 | 80 to 100 | 100 | 80 to 100 | 100 | 100 | – | – | – | – | – | – | – | – | mortality at 20 mg/m2 ([7]; surface concentration 20 mg/m^2, exposure 30 minutes): 80 to 100%
2 | C[C@H](NC(=O)c1cc(C#N)cc(S(C)(=O)=O)c1)c1ncnn1-c1ccc(C#N)cn1 [II-9] | – | – | 80 | 80 | 100 | 100 | – | 100 | 80 to 100 | – | 100 | 90 | 100 | 100 | 100 | 90 | 100 | 100 | – | mortality at 500 g/ha ([12]; application rate 500 g/ha): 90%
3 | C[C@H](NC(=O)c1cc(Br)cc(S(C)(=O)=O)c1)c1ncnn1-c1ccc(C#N)cn1 [II-41] | 100 | 100 | 100 | 100 | 100 | 100 | – | 100 | – | 100 | 100 | 100 | 100 | – | – | 100 | – | 100 | – | –
4 | Cc1nc([C@H](C)NC(=O)c2cc(Cl)cc(S(=O)(=O)C(F)(F)F)c2)n(-c2ccc(Cl)cn2)n1 [II-14] | – | – | – | 80 | – | – | – | 100 | – | 100 | 80 | 90 | – | 100 | 100 | – | 100 | 100 | 80 to 100 | –
5 | CCS(=O)(=O)c1cc(C(=O)N[C@@H](C)c2nc(C3CC3)nn2-c2ccc(C#N)cn2)cc(C(F)(F)F)c1 [I-19] | – | 80 | 100 | 100 | 90 | 100 | 80 to 100 | 80 | – | 100 | 100 | – | – | – | – | – | – | 100 | 80 to 100 | –

— patent US20260206761A1, “HETEROARYL-TRIAZOLE COMPOUNDS AS PESTICIDES” (Bayer Aktiengesellschaft, priority 2019, published 2026)
